“And” between values parts separate entries of the source, which are not always exact repeats. Equal entries are not always repeated.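 Test compounds were applied to cells in 96-well plates for 48 hours at 5 doses. The concentration for 50% growth inhibition is given as GI50. TGI is the concentration that stops growth completely.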
Assays:
Assay in all cases: NCI-60 cell line screen, 48 h
KM20L2 colon = tested on: KM20L2 colon
DMS 114 small cell lung = tested on: DMS 114 small cell lung
M19-MEL melanoma = tested on: M19-MEL melanoma
DMS 273 small cell lung = tested on: DMS 273 small cell lung
HOP-18 NSCLC = tested on: HOP-18 NSCLC
MDA-MB-435 = tested on: MDA-MB-435
BT-549 breast = tested on: BT-549 breast
T-47D breast = tested on: T-47D breast
MCF7 breast = tested on: MCF7 breast
MDA-MB-231 breast = tested on: MDA-MB-231 breast

Compound	TGI (KM20L2 colon)	TGI (DMS 114 small cell lung)	TGI (M19-MEL melanoma)	TGI (DMS 273 small cell lung)	TGI (HOP-18 NSCLC)	GI50 (MDA-MB-435) [µM]	TGI (MDA-MB-435)	GI50 (BT-549 breast) [µM]	TGI (BT-549 breast)	GI50 (T-47D breast) [µM]	TGI (T-47D breast)	GI50 (MCF7 breast)	TGI (MCF7 breast)	GI50 (MDA-MB-231 breast)	TGI (MDA-MB-231 breast)	GI50 (HOP-18 NSCLC)	GI50 (KM20L2 colon) [µM]	GI50 (M19-MEL melanoma) [µM]	GI50 (DMS 273 small cell lung) [µM]
NCC(=O)OCN1C(=O)C2C3C=CC(C2C1=O)C1C2C(=O)N(COC(=O)CN)C(=O)C2C31 (stereo not given)	52.9 µM and 81.9 µM	39 µM and 36.8 µM	45.1 µM and 37.9 µM	33.6 µM and 37.3 µM	54.4 µM and 73.7 µM														
CCCCCCCCOC(=O)c1cc(O)c(O)c(O)c1						1.53	16.5 µM	2.08	14.2 µM	2.61	21.8 µM	4.14 µM	26.7 µM	12.1 µM	63.1 µM				
O=c1c2cc(-c3ccccc3)sc2nc2sc(-c3ccccc3)nn12	> 100 µM	> 100 µM	> 100 µM	> 100 µM	> 100 µM														
CCN(CC)CCNc1ccc(CO)c2sc3ccccc3c(=O)c12	18.4 µM and 22.6 µM	27.5 µM and 23 µM	26.5 µM and 31.6 µM		29.7 µM and 24.6 µM	2.49	7.56 µM and 11.3 µM	6.99	21.9 µM and 26.9 µM	4.84	17.8 µM and 28.6 µM	2.21 µM and 4.35 µM and 5.57 µM	7.55 µM and 17.3 µM and 19.2 µM	4.26 µM and 4.92 µM	21.7 µM and 20.6 µM	3.02 µM and 11.4 µM			
CC[O+]=c1cccc2ssnc1-2	> 100 µM		> 100 µM	> 100 µM	> 100 µM														
COc1ccc(S(=O)(=O)N2CCCCC2)cc1NC(=O)c1[nH]c(C)c2c1CCCCC2=O						2.49	> 100 µM	4	> 100 µM	1.41	46.9 µM	0.666 µM	> 100 µM	0.718 µM	> 100 µM				
COC(=O)/C1=C/C2CC(/C=C(/c3ccccc3)C(=O)O1)C2		55.8 µM	> 100 µM	53 µM	> 100 µM														
O=C(CN1C(=O)c2ccccc2C1=O)OC1C=CCCC1 (stereo not given)	> 100 µM		> 100 µM	> 100 µM	> 100 µM														
COc1cc2c(cc1OCCN1C(=O)c3cccc4cccc(c34)C1=O)N=C[C@@H]1CCCN1C2=O						16	25 µM and 35.9 µM		16.9 µM	18.9	28.2 µM and > 100 µM	13.6 µM	18.2 µM and > 100 µM	> 100 µM	14.6 µM and > 100 µM				
C=C(C)[C@@H]1CC[C@]2(C)[C@H](CC=C3[C@@H]4CC(C)(C)CC[C@]4(C(=O)OC)CC[C@]32C)[C@@]1(C)CC/C(N)=N/O						1.78	3.65 µM	1.93	4.12 µM	2.46	9.77 µM	2.13 µM	5.3 µM	1.61 µM	3.24 µM				
c1ccc2c(c1)[Se]c1ccccc1[Se]2	> 100 µM	> 100 µM	> 100 µM	> 100 µM	98.6 µM														
C/C(=C\c1ccccc1)C(O)S(=O)(=O)O (stereo not given)	> 100 µM	> 100 µM	> 100 µM	> 100 µM	> 100 µM														
C=CC1(C)/C(=N\O)C(C)(CC)C(=O)N1O (stereo not given)		> 100 µM	> 100 µM	> 100 µM	> 100 µM														
COc1cccc(C(=O)O)c1Cc1cccc2ccccc12	> 100 µM		> 100 µM	> 100 µM	> 100 µM														
O=C1c2ccccc2C(=O)c2c1c(NCCNCCO)c1cc[nH]c1c2NCCNCCO						3.03	11.9 µM	2.75	8.94 µM	11.8	> 46.5 µM	1.35 µM		4.15 µM	18.9 µM				
CCCC(=O)C(CC)/C(CCC(=O)N(Cc1ccccc1)Cc1ccccc1)=N/NC(=O)C[N+](C)(C)C (stereo not given)	> 100 µM	> 100 µM	> 100 µM	> 100 µM	> 100 µM														
CC(C)NCCCNC1=C(Cl)C(=O)c2ccccc2C1=O						2.1	4.07 µM	5.36	18.2 µM	8.02	33.8 µM	4.13 µM	17.5 µM	4.08 µM	18.3 µM				
CC(=O)[CH-]C(=O)c1ccccc1.CC(=O)[CH-]C(=O)c1ccccc1.CC(C)CCCC(C)[C@H]1CCC2[C@@H]3CCC4C[C@@H]([O-])CC[C@]4(C)C3CC[C@@]21C.CC(C)CCCC(C)[C@H]1CCC2[C@@H]3CCC4C[C@@H]([O-])CC[C@]4(C)C3CC[C@@]21C.Cl.[Ti+4] (stereo not given in full)	> 25 µM		> 25 µM	> 25 µM	> 25 µM											> 25 µM	> 25	> 25	> 25
O=C1c2ccccc2C(=O)N1C/C=N/NS(=O)(=O)c1ccc(Cl)cc1	> 100 µM	> 100 µM	> 100 µM	> 100 µM															

Reference: PubChem BioAssay (NCI)
